Reference: US12528809B2, “Crystalline forms of gepotidacin” (GLAXOSMITHKLINE INTELLECTUAL PROPERTY DEVELOPMENT LIMITED, priority 2020, dated 2026)

Key:
[1] = Physical form stability / conversion to Form 1; format: physicochemical
Experimental: The suspension was heated with a heat gun to dissolve most of the solids, and then left to slowly cool to room temperature. The resultant crystals were filtered and analysed by DSC, TGA, and XRPD.
Amorphous gepotidacin mesylate can be generated via lyophilization. Form 1 (150 mg) was dissolved MeCN/water (80/20 v/v; 1 mL). A clarifying filtration was performed and the filtrate was added to a 20 mL vial. The solution was frozen under liquid nitrogen and lyophilized for 4 hours.

[2] = Moisture sorption/desorption isotherms (DVS); details: first sorption cycle
From the text: The moisture sorption/desorption isotherms of gepotidacin mesylate dihydrate and gepotidacin HCl were obtained over a range of 5-90% relative humidity.

| physical form stability ([1]; ambient conditions, listed as Gepotidacin Mesylate Anhydrate (Form 2)) | critical RH step [2] [% RH] | uptake of water ([2]; critical step at 60% RH, indicates conversion to Form 1) [%] | SMILES | physical form stability ([1]; ambient conditions) | physical form stability ([1]; amorphous by lyophilization from MeCN/water (80/20 v/v)) | physical form stability ([1]; amorphous by lyophilization of an aq. t-BuOH solution, ambient conditions) |
| --- | --- | --- | --- | --- | --- | --- |
| unstable under ambient conditions | 60 | 4.8 | CS(=O)(=O)O.O.O.O=c1ccc2ncc(=O)n3c2n1C[C@H]3CN1CCC(NCc2cc3c(cn2)OCCC3)CC1 [Gepotidacin mesylate anhydrate (Form 2)] | convert to Gepotidacin mesylate dihydrate (Form 1) after one hour | – | – |
| – | – | – | CS(=O)(=O)O.O.O.O=c1ccc2ncc(=O)n3c2n1C[C@H]3CN1CCC(NCc2cc3c(cn2)OCCC3)CC1 [Amorphous gepotidacin mesylate] | – | started to convert to Form 1 unless stored in a sealed vial with desiccant | physically stable for at least three days |
